Reference: patent publication US10738062B2, “Chromane-substituted tetracyclic compounds and uses thereof for the treatment of viral diseases” (Merck Sharp & Dohme Corp., priority 2016, dated 2020)
Read-outs that look alike come from different tables or passages of the source.

Experiments:
Set-up in all cases: species or system Hepatitis C virus
HCV replicon 1A = experiment: Cell-based HCV replicon assay (Replicon Assay A), replicon 1A; details: replicon RNA by real time PCR, day 3
Procedure, shortened: (§1)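 Replicon cells were seeded at 2000/well with compound, 10 serial dilutions starting at 333.3 nM to 1.667 nM, in 0.5% DMSO and 5% FBS, then harvested on day 3. Replicon RNA was measured by multiplex TaqMan RT-PCR with cyclophilin as endogenous control. EC50 is the concentration raising Ct by 1 over projected baseline.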

HCV replicon 1B = experiment: Cell-based HCV replicon assay (Replicon Assay B), replicon 1B; details: replicon RNA by real-time PCR, 3 days
Experimental: In an alternate assay (“Replicon Assay B”), 1000 cells were seeded per well in a 384-well collagen coated black plate from Greiner bio-one (Cat #781946) in 5% FBS. Inhibitors of this invention were added at 24 h post-seeding, and the plates were incubated for 3 days. Cells were subsequently lysed with Qiagen lysis buffer (Cat #1062731) to extract the RNA. HCV replicon RNA level was measured by real-time PCR using the RNA-to-CT kit from Applied Biosystem (Cat #4392656) and genotype-specific primers and probes. The amplicon was located within NS5B. […] (SEQ. ID NO. 2); the probe sequence was FAM-labeled […] (SEQ. ID NO. 3).
The real-time RT-PCR reactions were run on ABI PRISM 7900HT or Viia7 Sequence Detection System using the following program: 48° C. for 30 minutes, 95° C. for 10 minutes, 40 cycles of 95° C. for 15 sec, 60° C. for 1 minutes.
EC50 data for replicons 1A, 1AY93H and 2B were obtained using Replicon Assay A and EC50 data for replicon 1B was obtained using Replicon Assay B.

HCV replicon 2B = experiment: Cell-based HCV replicon assay (Replicon Assay A), replicon 2B; details: replicon RNA by real time PCR, day 3
Procedure, shortened: as §1

HCV replicon 1A Y93H = experiment: Cell-based HCV replicon assay (Replicon Assay A), replicon 1AY93H; details: replicon RNA by real time PCR, day 3
Procedure, shortened: as §1

[1] = Hepatitis C virus, 72 h, read-out: EC50 replicon 2B, Replicon Assay A
[2] = Hepatitis C virus, 72 h, read-out: EC50 replicon 1A Y93H, Replicon Assay A
[3] = read-out: EC50 replicon 2B, Replicon Assay A
[4] = read-out: EC50 replicon 1A Y93H, Replicon Assay A

## COC(=O)NC(C(=O)N1[C@@H]2C[C@@H]2C[C@H]1c1ncc(-c2ccc3c(c2)cc2n3C(c3ccc4c(c3)OCCC4)Oc3cc(-c4cnc([C@@H]5CCCN5C(=O)[C@@H](NC(=O)OC)C(C)C)[nH]4)cc(F)c3-2)[nH]1)C1CCOC(C)(C)C1 (single isomer, unassigned) [Compound 69]
HCV replicon 1A; Hepatitis C virus, 72 h
  EC50: 3.2 pM
HCV replicon 1B; Hepatitis C virus, 72 h
  EC50: 3.5 pM
HCV replicon 2B; [1]
  EC50: 8 pM
HCV replicon 1A Y93H; [2]
  EC50: 5 pM

## COC(=O)N[C@H](C(=O)N1CCC[C@H]1c1ncc(-c2cc(F)c3c(c2)OC(c2ccc4c(c2)OCCC4)n2c-3c(F)c3cc(-c4cnc([C@@H]5CCCN5C(=O)[C@@H](NC(=O)OC)C5CCOCC5)[nH]4)ccc32)[nH]1)C(C)C (single isomer, unassigned) [Compound 92]
HCV replicon 1A
  EC50: 1.5 pM
HCV replicon 1B; Hepatitis C virus, 72 h
  EC50: 2.4 pM
HCV replicon 2B; [3]
  EC50: 6 pM
HCV replicon 1A Y93H; [4]
  EC50: 6 pM

## COC(=O)N[C@H](C(=O)N1CCC[C@H]1c1ncc(-c2cc(F)c3c(c2)OC(c2ccc4c(c2)OCCC4C)n2c-3cc3cc(-c4cnc([C@@H]5CCCN5C(=O)[C@@H](NC(=O)OC)C(C)C)[nH]4)ccc32)[nH]1)C(C)C (single isomer, unassigned) [Compound 10]
HCV replicon 1A
  EC50: 2.4 pM
HCV replicon 1B
  EC50: 1.2 pM
HCV replicon 2B; [3]
  EC50: 41 pM
HCV replicon 1A Y93H; [4]
  EC50: 39 pM

## COC(=O)NC(C(=O)N1CCC[C@H]1c1ncc(-c2ccc3c(c2)cc2n3C(c3ccc4c(c3)OCCC4)Oc3cc(-c4cnc([C@@H]5CCCN5C(=O)[C@@H](NC(=O)OC)C(C)C)[nH]4)cc(F)c3-2)[nH]1)C(C)(C)F (single isomer, unassigned) [Compound 43]
HCV replicon 1A; Hepatitis C virus, 72 h
  EC50: 2.2 pM
HCV replicon 1B; Hepatitis C virus, 72 h
  EC50: 2.3 pM
HCV replicon 2B; [3]
  EC50: 81 pM
HCV replicon 1A Y93H; [2]
  EC50: 75 pM

## CCO[C@H](C)[C@H](NC(=O)OC)C(=O)N1CCC[C@H]1c1ncc(-c2cc(F)c3c(c2)OC(c2ccc4c(c2)OCCC4)n2c-3cc3cc(-c4cnc([C@@H]5CCCN5C(=O)[C@@H](NC(=O)OC)C(C)C)[nH]4)ccc32)[nH]1 (single isomer, unassigned) [Compound 40]
HCV replicon 1A
  EC50: 2.1 pM
HCV replicon 1B
  EC50: 2.2 pM
HCV replicon 2B; [3]
  EC50: 86 pM
HCV replicon 1A Y93H; [4]
  EC50: 107 pM

## COC(=O)NC(C(=O)N1CCC[C@H]1c1ncc(-c2cc(F)c3c(c2)OC(c2ccc4c(c2)OCCC4)n2c-3cc3cc(-c4cnc([C@@H]5CCCN5C(=O)[C@@H](NC(=O)OC)C5CCOCC5)[nH]4)ccc32)[nH]1)C(C)(C)F (single isomer, unassigned) [Compound 87]
HCV replicon 1A
  EC50: 2.3 pM
HCV replicon 1B; Hepatitis C virus, 72 h
  EC50: 3.4 pM
HCV replicon 2B; [3]
  EC50: 133 pM
HCV replicon 1A Y93H; [4]
  EC50: 528 pM

## COC(=O)NC(C(=O)N1[C@@H]2C[C@@H]2C[C@H]1c1ncc(-c2ccc3c(c2)cc2n3C(c3ccc4c(c3)OCCC4)Oc3cc(-c4cnc([C@@H]5CCCN5C(=O)[C@@H](NC(=O)OC)C(C)C)[nH]4)cc(F)c3-2)[nH]1)C1CCO[C@H](C)C1 (single isomer, unassigned) [Compound 82]
HCV replicon 1A
  EC50: 1.7 pM
HCV replicon 1B; Hepatitis C virus, 72 h
  EC50: 2.1 pM
HCV replicon 2B; [3]
  EC50: 4 pM
HCV replicon 1A Y93H; [4]
  EC50: 3 pM

## COC(=O)N[C@H](C(=O)N1CCC[C@H]1c1ncc(-c2cc(F)c3c(c2)OC(c2ccc4c(c2)CCCO4)n2c-3cc3cc(-c4cnc([C@@H]5CCCN5C(=O)[C@@H](NC(=O)OC)C5CCOCC5)[nH]4)ccc32)[nH]1)C(C)C (single isomer, unassigned) [Compound 35]
HCV replicon 1A; Hepatitis C virus, 72 h
  EC50: 3.4 pM
HCV replicon 1B; Hepatitis C virus, 72 h
  EC50: 1.2 pM
HCV replicon 2B; [1]
  EC50: 258 pM
HCV replicon 1A Y93H; [4]
  EC50: 61 pM

## COC(=O)NC(C(=O)N1CCC[C@H]1c1ncc(-c2cc(F)c3c(c2)OC(c2ccc4c(c2)OCCC4)n2c-3cc3cc(-c4cnc([C@@H]5CCCN5C(=O)[C@@H](NC(=O)OC)C5CCOCC5)[nH]4)ccc32)[nH]1)C(C)(C)F (single isomer, unassigned) [Compound 90]
HCV replicon 1A
  EC50: 1.7 pM
HCV replicon 1B
  EC50: 3.2 pM
HCV replicon 2B; [3]
  EC50: 157 pM
HCV replicon 1A Y93H; [4]
  EC50: 47 pM

## COC(=O)N[C@H](C(=O)N1CCC[C@H]1c1ncc(-c2ccc3c(c2)OC(c2ccc4c(c2)CCCO4)n2c-3cc3cc(-c4cnc([C@@H]5C[C@H]6C[C@H]6N5C(=O)[C@@H](NC(=O)OC)C(C)C)[nH]4)ccc32)[nH]1)C(C)C (single isomer, unassigned) [Compound 52]
HCV replicon 1A
  EC50: 2.2 pM
HCV replicon 1B
  EC50: 3.1 pM
HCV replicon 2B; [3]
  EC50: 1670 pM
HCV replicon 1A Y93H; [4]
  EC50: 454 pM

## COC(=O)N[C@H](C(=O)N1CCC[C@H]1c1ncc(-c2cc(F)c3c(c2)OC(c2ccc4c(c2)OC(C)(C)C4)n2c-3cc3cc(-c4cnc([C@@H]5CCCN5C(=O)[C@@H](NC(=O)OC)C(C)C)[nH]4)ccc32)[nH]1)C(C)C (single isomer, unassigned) [Compound 28]
HCV replicon 1A
  EC50: 1.7 pM
HCV replicon 1B; Hepatitis C virus, 72 h
  EC50: 2.1 pM
HCV replicon 2B; [3]
  EC50: 105 pM
HCV replicon 1A Y93H; [4]
  EC50: 32 pM

## COC(=O)NC(C(=O)N1[C@@H]2C[C@@H]2C[C@H]1c1ncc(-c2ccc3c(c2)cc2n3C(c3ccc4c(c3)OCCC4)Oc3cc(-c4cnc([C@@H]5CCCN5C(=O)[C@@H](NC(=O)OC)C(C)C)[nH]4)cc(F)c3-2)[nH]1)C1C[C@@H](C)O[C@@H](C)C1 (single isomer, unassigned) [Compound 68]
HCV replicon 1A
  EC50: 1.8 pM
HCV replicon 1B; Hepatitis C virus, 72 h
  EC50: 2.3 pM
HCV replicon 2B; [3]
  EC50: 16 pM
HCV replicon 1A Y93H; [4]
  EC50: 5 pM

## COC(=O)NC(C(=O)N1CCC[C@H]1c1ncc(-c2ccc3c(c2)cc2n3C(c3ccc4c(c3)OCCC4)Oc3cc(-c4cnc([C@@H]5CCCN5C(=O)[C@@H](NC(=O)OC)C(C)C)[nH]4)cc(F)c3-2)[nH]1)C1CCO[C@H](C)C1 (single isomer, unassigned) [Compound 93]
HCV replicon 1A; Hepatitis C virus, 72 h
  EC50: 1.7 pM
HCV replicon 1B; Hepatitis C virus, 72 h
  EC50: 2.1 pM
HCV replicon 2B; [3]
  EC50: 112 pM
HCV replicon 1A Y93H; [4]
  EC50: 671 pM

## CCN(CC)[C@@H](C(=O)N1[C@@H]2C[C@@H]2C[C@H]1c1ncc(-c2ccc3c(c2)cc2n3C(c3ccc4c(c3)OCCC4)Oc3cc(-c4cnc([C@@H]5CCCN5C(=O)[C@@H](NC(=O)OC)C5CCOCC5)[nH]4)cc(F)c3-2)[nH]1)c1ccccc1 (single isomer, unassigned) [Compound 54]
HCV replicon 1A; Hepatitis C virus, 72 h
  EC50: 4.9 pM
HCV replicon 1B; Hepatitis C virus, 72 h
  EC50: 2.4 pM
HCV replicon 2B; [3]
  EC50: 11 pM
HCV replicon 1A Y93H; [2]
  EC50: 8 pM

## COC(=O)N[C@H](C(=O)N1CCC[C@H]1c1ncc(-c2ccc3c(c2)cc2n3C(c3ccc4c(c3)OCCC4)Oc3cc(-c4cnc([C@@H]5CCCN5C(=O)[C@@H](NC(=O)OC)C5CCOCC5)[nH]4)cc(F)c3-2)[nH]1)C(C)C (single isomer, unassigned) [Compound 33]
HCV replicon 1A; Hepatitis C virus, 72 h
  EC50: 1.8 pM
HCV replicon 1B; Hepatitis C virus, 72 h
  EC50: 2.1 pM
HCV replicon 2B; [3]
  EC50: 114 pM
HCV replicon 1A Y93H; [4]
  EC50: 598 pM

## COC(=O)N[C@H](C(=O)N1CCC[C@H]1c1ncc(-c2cc(F)c3c(c2)OC(c2ccc4c(c2)OCCC4)n2c-3cc3cc(-c4cnc([C@@H]5CCCN5C(=O)[C@@H](NC(=O)OC)C5CCOCC5)[nH]4)ccc32)[nH]1)C(C)C (single isomer, unassigned) [Compound 32]
HCV replicon 1A
  EC50: 2.6 pM
HCV replicon 1B
  EC50: 2.6 pM
HCV replicon 2B; [3]
  EC50: 3 pM
HCV replicon 1A Y93H; [4]
  EC50: 10 pM
